Read-outs that look alike come from different tables or passages of the source.
Experiments:
[1] = target: T1, M2 muscarinic receptor (Rattus norvegicus, UniProt P10980); assay: [3H]-N-methylscopolamine radioligand binding assay, rat heart membranes; conditions: rat heart, [3H]NMS
T1 construct: Submandibular glands and heart were isolated and placed in ice cold homogenising buffer; from tissue; host or cells: rat heart membrane homogenate
T1 sequence (P10980 1-466): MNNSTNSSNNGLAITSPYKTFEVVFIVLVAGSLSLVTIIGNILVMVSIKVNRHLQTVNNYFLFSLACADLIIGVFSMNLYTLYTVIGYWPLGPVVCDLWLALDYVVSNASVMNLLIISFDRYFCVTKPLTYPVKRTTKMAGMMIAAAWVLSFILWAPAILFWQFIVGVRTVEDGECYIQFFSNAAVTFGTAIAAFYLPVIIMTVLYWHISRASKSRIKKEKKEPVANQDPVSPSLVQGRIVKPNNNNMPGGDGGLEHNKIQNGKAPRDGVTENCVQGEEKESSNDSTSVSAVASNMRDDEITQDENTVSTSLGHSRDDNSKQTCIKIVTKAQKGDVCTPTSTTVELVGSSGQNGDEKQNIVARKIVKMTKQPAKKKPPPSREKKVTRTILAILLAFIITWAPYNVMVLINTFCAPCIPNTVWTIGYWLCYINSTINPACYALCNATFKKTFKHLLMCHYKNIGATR

[2] = system: isolated rat bladder; assay: tissue or blood; assay type: cell-based; conditions: rat bladder strips, antagonism of carbachol contraction
[3] = target: T2, M3 muscarinic receptor (Rattus norvegicus, UniProt P08483); assay: [3H]-N-methylscopolamine radioligand binding assay, rat submandibular gland membranes; set-up: Receptor Binding Assay Selectivity: reference not given here; conditions: for Ki: rat submandibular gland, [3H]NMS
T2 construct: Submandibular glands and heart were isolated and placed in ice cold homogenising buffer; from tissue; host or cells: rat submandibular gland membrane homogenate

[4] = Table III, read-out: M2 Ki (nm)
[5] = Table III, read-out: Rat Bladder pKB (converted)
[6] = Table III, read-out: M3 Ki (nm)
[7] = Table III, read-out: M2 pKi (converted)

T2 sequence (P08483 whole entry): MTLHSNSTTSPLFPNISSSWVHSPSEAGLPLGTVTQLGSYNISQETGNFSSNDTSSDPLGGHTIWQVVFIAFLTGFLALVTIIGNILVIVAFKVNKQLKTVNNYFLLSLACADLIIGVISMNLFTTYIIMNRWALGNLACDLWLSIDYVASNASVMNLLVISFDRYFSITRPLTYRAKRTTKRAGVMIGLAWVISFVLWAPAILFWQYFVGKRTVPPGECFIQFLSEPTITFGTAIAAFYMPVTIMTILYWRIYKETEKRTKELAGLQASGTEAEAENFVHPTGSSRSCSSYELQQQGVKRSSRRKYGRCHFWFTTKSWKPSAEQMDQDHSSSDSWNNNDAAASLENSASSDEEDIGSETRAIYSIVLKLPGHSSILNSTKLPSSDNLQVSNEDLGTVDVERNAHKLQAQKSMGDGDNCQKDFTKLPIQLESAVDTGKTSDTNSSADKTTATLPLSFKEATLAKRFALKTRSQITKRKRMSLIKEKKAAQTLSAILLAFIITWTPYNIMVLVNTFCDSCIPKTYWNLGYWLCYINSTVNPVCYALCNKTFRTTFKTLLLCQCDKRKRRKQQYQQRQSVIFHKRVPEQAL

SMILES	Ki [1, 4]	Kb [2, 5]	Ki [3, 6]	Ki [1, 7]	Ki ([1]; Table II, read-out: Receptor Binding Assay Ki (nM) M2)	Kb ([2]; Table II, read-out: Functional Assay KB)	Ki ([3]; Table II, read-out: Receptor Binding Assay Ki (nM) M 3)	Receptor Binding Assay Selectivity ([3]; Table II, ratio M2 Ki / M3 Ki)	Ki ([3]; Table III, read-out: M3 Pki (converted))
O=C(N[C@H]1[C@@H]2CN(Cc3ccccc3)C[C@@H]21)C(O)(c1ccc(Oc2ccccc2)cc1)C1CCCCC1 (stereo partly drawn) [Compound No. 52, (1α,5α,6α)-6-N-(3-azabicyclo[3.1.0]hexyl-3-benzyl)-2-cyclohexyl-2-hydroxy-2-(4-phenoxyphenyl)acetamide]	> 1000 nM	3090 nM	370 nM	–	–	–	–	–	–
C#CCN1CC2C(C1)C2NC(=O)C(O)(c1ccccc1)C1CCCCC1 (stereo not drawn) [Compound No. 35, (1α,5α,6α)-6-N-(3-azabicyclo[3.1.0]hexyl-3-(2-propargyl))-2-cyclohexyl-2-hydroxy-2-phenyl acetamide]	1180 nM	24.5 nM	429 nM	> 1000 nM	–	–	–	–	–
CC(C)=CCCN1CC2C(C1)C2NC(=O)C(O)(c1ccccc1)C1CCCC1 (stereo not drawn) [Compound No. 65, (1α,5α,6α)-6-N-(3-azabicyclo[3.1.0]hexyl-3-(4-methyl-3-pentenyl))-2-cyclopentyl-2-hydroxy-2-phenyl acetamide]	1370 nM	3.98 nM	33 nM	1350 nM	1370 nM	4 nM	33 nM	41.52	29.5 nM

Reference: patent publication US7232835B2, “3,6-Disubstituted azabicyclo derivatives as muscarinic receptor antagonists” (Ranbaxy Laboratories Limited, priority 2002, dated 2007)
